Assay results as given in patent US10092586B2, “Glycolipid containing compositions for use in the treatment of tumors” (Agalimmune Limited (GB/GB), priority 2014, dated 2018).
Values after ≈ are worked out from the molar mass of the structure shown. Values joined by “and” are separate entries in the source; they are usually repeats but may differ in a detail not shown here. Identical values can stand only once. Like-named read-outs stand apart in the source and are kept apart here.

Columns and labels:
CHO-K1 cells [1] = assay: Complement dependent cell cytotoxicity/cell lysis (CDC) assay; format: cell-based
Experimental: The assays below quantify both the amount of α-Gal BOEL inserted into the cell plasma membranes and the functional impact of α-Gal BOEL insertion in stimulating anti-Gal mediated complement-dependent cytotoxicity (CDC). α-Gal BOEL is titrated and incubated with CHO-K1 cells. These cells are either fixed and used in a whole cell ELISA assay, to determine incorporation of α-Gal into membranes, or incubated with anti-Gal antibody and human serum to measure CDC (or general cytotoxicity in the absence of complement from human serum).
(§1) α-Gal BOEL is titrated as follows. One 40 μl aliquot of α-Gal BOEL (2 mg/ml (obtained from Sigma as FSL-Galili(tri)™, Catalogue No. F9432)) is thawed and sonicated for 30 seconds. 40 μl of phosphate buffered saline (PBS) is added to the tube and vortexed for 10 seconds. 25 μl of this mix is added to 55 μl of PBS and mixed well. These dilutions are repeated to give a full titration of α-Gal BOEL in the desired concentration range.
CHO-K1 cells, which lack α-Gal epitopes, are resuspended in Dulbecco's PBS (DPBS) at 37° C. and centrifuged at 1000 rpm for 5 minutes. […]
An aliquot of the cell suspension (45 μl) is transferred to all tubes of α-Gal BOEL and mixed gently by inversion and incubated for 30 minutes at 37° C. […] The cell suspension (25 μl) is transferred either to an assay plate (standard white 96-well plate for luminescence readout (available from Corning)) to perform the CDC assay (A) or 50 μl transferred to a poly-d-lysine coated plate (available from Sigma) for the in-cell ELISA (B) to measure incorporation into cell membranes.
Anti-Gal antibody (from a range of sources, mouse anti-Gal containing plasma in this example) is added (25 μl/well) to the CDC assay plate (A) and then incubated for 30 minutes at 37° C. […] The human serum (containing active complement) is diluted in warm media (to a pre-determined level by titration in the assay) and 50 μl added to each well. […] This reagent luminescence is proportional to the […]. […] Luminescence output is measured using a standard 96-well plate reader (see FIG. 3).

B16-F10 melanoma cells = assay: GT KO mouse melanoma model, distal tumour development; format: in vivo
Experimental: FIG. 7: Dose titration experiments with α-Gal BOEL. Anti-Gal producing GT KO mice were injected with 1×10^6 B16-F10 melanoma cells for primary tumour growth on their right flanks and 1×10^4 B16-F10 cells for secondary/distal tumour injection on the opposite flank. 5 days later, the main tumours were intra-tumourally treated with PBS (open circles), or 0.1 mg α-Gal BOEL (open triangles), or 0.5 mg α-Gal BOEL (closed triangles), or 1 mg of α-Gal BOEL (closed circles). The development of visible distal tumours as model for metastases development was followed for up to 32 days. The percentages of mice without visible distal tumours are plotted in the graphs. Statistical differences between the groups were determined by log-rank test.
FIG. 8: α-Gal BOEL activity in anti-Gal producing mice (i.e mice immunized with pig kidney membranes) or mice lacking anti-Gal (i.e. non-immunized mice). Hyper-immunized or non-immunized GT KO mice were injected with 1×10^6 B16-F10 cells for primary tumour growth on their right flanks and either 1×10^4 B16-F10 cells for secondary/distal tumour injection on the opposite flank. 4 days later, the main tumours were intra-tumourally treated with PBS in hyper-immunized mice (open circles), or 1 mg α-Gal BOEL (closed circles for hyper-immunized mice; open squares for non-immunized mice). The development of visible distal tumours as model for metastases development was followed for up to 28 days. The percentages of mice without visible distal tumours are plotted in the graph. Statistical differences between the groups were determined by log-rank test.
In vivo pharmacodynamics experiments were conducted to assess the effects of α-Gal BOEL in a GT KO mouse melanoma model with B16-F10 melanoma cells. […] As a result, the GT KO mice can be immunized with pig kidney membrane homogenate to produce titers of IgG and IgM anti-Gal antibodies that are similar to those seen naturally in humans. Such an immune response is induced since pig kidney membranes contain a high concentration of α-Gal epitopes on cell membranes and in intercellular matrix.
In the B16-F10 melanoma model, mice were injected with cultured B16-F10 cells on both flanks, on one side they were injected with 1×10^6 melanoma cells to create a primary tumour and with a reduced cell number on the contra-lateral flank (1×10^4 melanoma cells) to create a model of a ‘distant metastasis’ also referred to as secondary tumour. Primary tumours are injected intratumourally with α-Gal BOEL or vehicle control when a predefined tumour diameter is reached. The critical endpoint recorded is growth of the ‘distant’ tumour; this is used to measure the ability of an agent to elicit an effective protective anti-tumour immune response throughout the body. Doses from 0.1-2.5 mg of α-Gal BOEL were tested.

[2] = test system: monoclonal mouse anti-Gal IgM (M86 hybridoma supernatant); assay: ELISA to demonstrate binding to anti-Gal antibodies; conditions: α-Gal BOEL dried in ELISA wells, serial dilution from 2 mg/ml
Experimental: A 96-well plate is first coated with α-Gal BOEL (obtained from Sigma as FSL-Galili(tri)™, Catalogue No. F9432). 50 μL PBS is added to each well. α-Gal BOEL is resuspended in PBS to a concentration of 2 mg/ml and 50 μL added to a well. Serial dilutions are performed by transferring 50 μL into wells across the plate making sure that each well is thoroughly mixed before transfer. The plate is left overnight to dry.
150 μL of blocking buffer (1×PBS/1% BSA) is added to the dry wells. The plate is covered and incubated at 37° C. for 2 hours. The well contents are discarded and the wells washed with PBS. 50 μL of the primary anti-Gal antibody (monoclonal mouse anti-Gal IgM in this example, M86 hybridoma supernatant) is added to each well. The plate is incubated at room temperature for 2 hours. The plate is washed 3 times with 200 μL washing buffer (1×PBS, 0.05% Tween).
50 μL of secondary goat anti-mouse IgM-HRP solution (Accurate Chemical; Catalogue No. JGM035020) is added to each well. The plate is covered and incubated at room temperature for 1 hour and then is washed 3 times with 200 μL washing buffer. 100 μL of a standard OPD (o-Phenylenediamine dihydrochloride) solution (e.g. Sigma; Catalogue No. P8287) is added to each well, incubated for 5 minutes and then 50 μL of stop solution (1 M sulfuric acid) is added. The well absorbances are immediately read at 492 nm (A492) (see FIG. 2).

CHO-K1 cells [3] = assay: General cellular toxicity (CDC procedure without human serum); format: cell-based; conditions: absence of human serum; up to 500 μg/ml; CellTitreGlo
Experimental: as §1
(§2) CHO-K1 cells, which lack α-Gal epitopes, are resuspended in Dulbecco's PBS (DPBS) at 37° C. and centrifuged at 1000 rpm for 5 minutes. The supernatant is aspirated and the cell pellet resuspended to 1×10^7 cells/ml in 450 μl DPBS (37° C.). The cell pellet is washed again to remove all traces of serum.
(§3) An aliquot of the cell suspension (45 μl) is transferred to all tubes of α-Gal BOEL and mixed gently by inversion and incubated for 30 minutes at 37° C. […] The cell suspension (25 μl) is transferred either to an assay plate (standard white 96-well plate for luminescence readout (available from Corning)) to perform the CDC assay (A) or 50 μl transferred to a poly-d-lysine coated plate (available from Sigma) for the in-cell ELISA (B) to measure incorporation into cell membranes. […]
General cellular toxicity was measured by following the CDC assay procedure above but replacing human serum with pre-warmed media. […]

CHO-K1 cells [4] = assay: In-cell ELISA to measure incorporation of α-Gal BOEL into cells; format: cell-based; conditions: CHO-K1 cells incubated 30 minutes at 37° C.; M86 primary antibody
Experimental: as §1, §2, §3
100 μL/well of TMB Substrate is added the plate incubated at room temperature, protected from light. […] The absorbance at 450 nm is measured within 30 minutes of stopping the reaction (see FIG. 5).

CHO-K1 cells [5] = assay: Complement deposition assay (flow cytometry), human serum; format: cell-based; conditions: 500 μg/ml, 2.5% human serum
Experimental: (§4) 1×10^6 B16-F10 and CHO-K1 cells were harvested from growing cultures and incubated with 500 μg/ml αGal BOEL in PBS for 1 hour at 37° C., after which the cells were washed 3 times with PBS. After washing the CHO-K1 cells were incubated with either 2.5% normal (NHS) or heat-inactivated (HI NHS) human serum for 10 minutes at 37° C. The B16-F10 cells were incubated with either 2.5% serum from normal GT−/− mice (NMS) or 2.5% serum from pig kidney homogenate immunised mice (I NMS) for 10 minutes at 37° C. The cells were placed on ice and washed twice with ice-cold cell staining buffer (PBS+0.1% BSA). The cells were incubated with either anti-C3b (C3b, Pierce MAI-70054, diluted 1:1000 in cell staining buffer) or anti-SC5b-9 (MAC, Quidel A239, diluted 1:100 in cell staining buffer) for 30 minutes on ice. The cells were washed twice with ice cold cell staining buffer and incubated with FITC goat anti-mouse IgG (Abcam ab97022, diluted 1:2000 in cell staining buffer) for 30 minutes on ice. After 2 further washes with ice-cold cell staining buffer the cells were resuspended in ice-cold cell staining buffer plus 7-AAD (Biolegend 420403). The cells were analysed using a Beckman Coulter Cytomics FC500 flow cytometer, with data captured in the FL-1 channel. Data on the histograms presented are gated on live cells.

B16-F10 cells = assay: Complement deposition assay (flow cytometry), mouse serum; format: cell-based; conditions: B16 mouse melanoma cells, 500 μg/ml, 2.5% mouse serum
Experimental: as §4

## CCCCCCCC/C=C\CCCCCCCC(=O)OC[C@H](COP(=O)(O)OCCNC(=O)CCCCC(=O)NCCCO[C@@H]1OC(CO)[C@@H](O[C@@H]2OC(CO)[C@H](O)[C@H](O[C@H]3OC(CO)[C@H](O)[C@H](O)C3O)C2O)[C@H](O)C1NC(C)=O)OC(=O)CCCCCCC/C=C\CCCCCCCC (stereo partly drawn) [α-Gal BOEL, (9Z,9′Z)-(2R)-3-(((2-(6-((3-(((2R,3R,4R,5S,6R)-3-acetamido-5-(((2S,3R,4S,5S,6R)-3,5-dihydroxy-6-(hydroxymethyl)-4-(((2R,3R,4S,5R,6R)-3,4,5-trihydroxy-6-(hydroxymethyl)tetrahydro-2H-pyran-2-yl)oxy)tetrahydro-2H-pyran-2-yl)oxy)-4-hydroxy-6-(hydroxymethyl)tetrahydro-2H-pyran-2-yl)oxy)propyl)amino)-6-oxohexanamido)ethoxy)(hydroxy)phosphoryl)oxy)propane-1,2-diyl bis(octadec-9-enoate)]
CHO-K1 cells [1]; Cricetulus griseus, CHO-K1, inhibition of CDC, CHO-K1 cells, mouse anti-Gal plasma, human serum, CellTiterGlo, single independent experiment, read-out: EC50
  EC50: 1.36 µg/mL (≈ 0.934 µM)
CHO-K1 cells [1]; Cricetulus griseus, CHO-K1, inhibition of CDC, over 4 independent experiments, read-out: Geomean / mean EC50
  EC50: 1.35 µg/mL (≈ 0.927 µM)
CHO-K1 cells [1]; inhibition of CDC, CHO-K1 cells, mouse anti-Gal plasma, human serum, CellTiterGlo, single independent experiment
  EC50: 1.24 µg/mL and 1.38 µg/mL and 1.43 µg/mL
B16-F10 melanoma cells; 1 mg intratumoural, anti-Gal producing (immunized) GT KO mice, up to 28 days
  mice protected from secondary tumour development: 80%
B16-F10 melanoma cells; 1 mg intratumoural, anti-Gal producing GT KO mice, up to 32 days
  degree of protection versus 0.1-mg and 0.5-mg doses: higher degree of protection
B16-F10 melanoma cells; 1 mg intratumoural, non-immunized GT KO mice (lacking anti-Gal)
  protective activity against secondary tumour development: lacked protective activity
B16-F10 melanoma cells; 0.1-mg to 1-mg intratumoural doses in 100 μL vehicle, side-by-side, anti-Gal producing GT KO mice
  activity response across doses (protection from distal tumour): dose-dependent activity response
[2]
  binding of monoclonal anti-Gal antibody (A492): binds to α-Gal epitopes on the α-Gal BOEL molecules
CHO-K1 cells [3]
  impact on cell viability / overt cytotoxicity: no impact on cell viability
CHO-K1 cells [4]
  incorporation into cells (absorbance at 450 nm): can be detected on the surface of CHO-K1 cells
CHO-K1 cells [5]
  deposition of complement protein C3b: leads to the deposition
  deposition of complement protein MAC: leads to the deposition
B16-F10 cells
  deposition of complement protein C3b: leads to the deposition
  deposition of complement protein MAC: leads to the deposition
